Our source for the GI50 and TGI values is PubChem BioAssay (NCI).

Test systems include MDA-MB-231 breast; OVCAR-3 ovarian; M14 melanoma; SF-295 CNS; MCF7 breast; SK-MEL-28 melanoma; MDA-MB-435; BT-549 breast; CAKI-1 renal; SK-OV-3 ovarian.
Assay in all cases: NCI anticancer screen, dose series, 48 h

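Dose response: 5 concentrations. Exposure: 48 h. Format: 96-well plates. Endpoint: linear interpolation; highest concentration if not reached. Here, GI50 denotes the concentration required for 50% inhibition of growth. TGI: concentration producing complete growth inhibition.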 *1 amine or outer side, *2 acyl side, *3 side chain or, on linkers, in order; H or OH if unused. Where a SMILES comes first, the peptide text is derived from it. Bridges are numbered along the chain shown (N, C = ends). [ ]: non-standard residue; d: D form. The star is where a group is joined. Phe(3-Me) = Cc1cccc(C[C@H](N)C(=O)O)c1; NH(4-Cl-2-F-phenyl) = Fc1cc(Cl)ccc1N*; Pro(4R-Me) = C[C@H]1CN[C@H](C(=O)O)C1; Hyp = O=C(O)[C@@H]1C[C@@H](O)CN1; aThr = C[C@H](O)[C@H](N)C(=O)O; Pip = O=C(O)[C@@H]1CCCCN1; CO = O=C([*:1])[*:2]

With `Cc1cccc(C[C@H](NC(=O)Nc2ccc(Cl)cc2F)C(=O)N[C@@H]2C(=O)N3C[C@H](O)C[C@H]3C(=O)N3CCCC[C@H]3C(=O)N[C@@H](C)C(=O)N3C[C@H](C)C[C@H]3C(=O)O[C@H]2C)c1` ({NH(4-Cl-2-F-phenyl)-CO}-[Phe(3-Me)][aThr][Hyp][Pip]A[Pro(4R-Me)]; ester 2-C), the GI50 is 0.429 µM with MDA-MB-231 breast; 0.438 µM in the test with OVCAR-3 ovarian; 0.487 µM in the test on M14 melanoma; 0.416 µM in the test on SF-295 CNS; 0.391 µM in the test on MCF7 breast; 0.728 µM in the test on SK-MEL-28 melanoma. Moreover, the GI50 in the test on MDA-MB-435 is 0.438 µM; with BT-549 breast, 0.54 µM; with CAKI-1 renal, 0.807 µM; in the test on SK-OV-3 ovarian, 0.501 µM. The TGI in the test with MDA-MB-231 breast came out at 1.71 µM; in the test with OVCAR-3 ovarian, 1.75 µM; with M14 melanoma, 2.19 µM; in the test on SF-295 CNS, 1.8 µM; in the test on MCF7 breast, 3 µM; in the test with SK-MEL-28 melanoma, 2.08 µM. For the same compound, the TGI was determined as 1.74 µM in the test with MDA-MB-435, 2.74 µM in the test with BT-549 breast, 5.58 µM in the test on CAKI-1 renal and 3.52 µM with SK-OV-3 ovarian.
Consider `O=C(Nc1ccncc1)C(=O)c1cn(S(=O)(=O)c2ccccc2F)c2ccccc12`, for which the GI50 in the test on MDA-MB-231 breast was 3.97 µM; with OVCAR-3 ovarian, 0.893 µM; in the test with M14 melanoma, 0.979 µM; in the test on SF-295 CNS it was 2.11 µM; in the test with MCF7 breast it was 0.547 µM; with SK-MEL-28 melanoma, 3.59 µM. The GI50 in the test on MDA-MB-435 was 0.188 µM; in the test on BT-549 breast, 4.41 µM; in the test on CAKI-1 renal, 2.43 µM; in the test on SK-OV-3 ovarian, 12 µM. In addition, the TGI in the test with MDA-MB-231 breast is 64.9 µM; with OVCAR-3 ovarian, 6.85 µM; in the test on M14 melanoma, above 100 µM; with SF-295 CNS, 10.2 µM; in the test on MCF7 breast it was 27.5 µM; in the test on SK-MEL-28 melanoma, 49.1 µM. In addition, the TGI is 0.695 µM in the test on MDA-MB-435, 54.8 µM with BT-549 breast, above 70.8 µM in the test on CAKI-1 renal and 36.6 µM in the test on SK-OV-3 ovarian.
Turning to `O=C(CNC(=O)c1cccc2ccccc12)Nc1ccccc1Oc1ccccc1`, the GI50 in the test on MDA-MB-231 breast was 0.982 µM; in the test with OVCAR-3 ovarian it was 0.19 µM; in the test with M14 melanoma, 0.278 µM; with SF-295 CNS, 0.25 µM; in the test with MCF7 breast, 0.306 µM; with SK-MEL-28 melanoma, 0.813 µM. The GI50 with MDA-MB-435 is 0.0425 µM; in the test with BT-549 breast it was 0.41 µM; in the test with CAKI-1 renal, 0.353 µM; in the test on SK-OV-3 ovarian, 0.398 µM. The TGI is above 10 µM in the test on MDA-MB-231 breast; 0.638 µM in the test with OVCAR-3 ovarian; above 10 µM in the test with M14 melanoma; above 10 µM with SF-295 CNS; above 10 µM in the test on MCF7 breast; above 10 µM in the test with SK-MEL-28 melanoma. Besides, the TGI is 0.313 µM in the test on MDA-MB-435, 5.43 µM in the test on BT-549 breast, above 10 µM in the test on CAKI-1 renal and 4.34 µM with SK-OV-3 ovarian.
Take `CN(/N=N/c1nc(OCc2ccccc2)c2[nH]cnc2n1)C(=O)N(C)/N=N/c1nc(OCc2ccccc2)c2[nH]cnc2n1`: the GI50 in the test on MDA-MB-231 breast was 41.2 µM; with OVCAR-3 ovarian, 34.8 µM; with M14 melanoma it was 71.2 µM; in the test on SF-295 CNS it was 32.4 µM; in the test with MCF7 breast, 43 µM; in the test on SK-MEL-28 melanoma it was above 100 µM. Besides, the GI50 is 49.1 µM in the test with MDA-MB-435, 36.6 µM in the test with BT-549 breast, 17 µM in the test on CAKI-1 renal and 42.1 µM in the test with SK-OV-3 ovarian. Besides, the TGI in the test with MDA-MB-231 breast, with OVCAR-3 ovarian, with M14 melanoma, with SF-295 CNS, in the test with MCF7 breast and with SK-MEL-28 melanoma was above 100 µM each time. In addition, the TGI was above 100 µM in the test on MDA-MB-435, above 100 µM in the test with BT-549 breast, 63.5 µM with CAKI-1 renal and above 100 µM in the test on SK-OV-3 ovarian.
Turning to `CCOc1cc2ncc(C#N)c(Nc3ccc(F)c(Cl)c3)c2cc1NC(=O)/C=C/CN(C)C`, the GI50 in the test on MDA-MB-231 breast is 0.882 µM; in the test on OVCAR-3 ovarian, 0.216 µM; with M14 melanoma, 0.312 µM; in the test with SF-295 CNS, 2.25 µM; in the test with MCF7 breast it was 1.23 µM; in the test on SK-MEL-28 melanoma, 1.08 µM. Moreover, the GI50 is 0.323 µM with MDA-MB-435, 0.665 µM in the test with BT-549 breast, 0.0278 µM in the test with CAKI-1 renal and 0.022 µM with SK-OV-3 ovarian. Moreover, the TGI is 5.07 µM in the test on MDA-MB-231 breast; 1.77 µM in the test on OVCAR-3 ovarian; 1.83 µM in the test with M14 melanoma; above 10 µM with SF-295 CNS; 5.56 µM in the test on MCF7 breast; above 4.73 µM in the test on SK-MEL-28 melanoma. Moreover, the TGI with MDA-MB-435 was 1.42 µM; with BT-549 breast, above 7.78 µM; with CAKI-1 renal, 0.952 µM; in the test on SK-OV-3 ovarian, 0.139 µM.
`CC(=O)Oc1cccc2c1C(=O)C(Br)(Br)CCC2`: the TGI stood at 8.41 µM in the test on MDA-MB-231 breast; 13.3 µM in the test with OVCAR-3 ovarian; 8.67 µM in the test on M14 melanoma; 31.3 µM in the test on SF-295 CNS; 5.71 µM in the test on MCF7 breast; 25.7 µM in the test on SK-MEL-28 melanoma. Besides, the TGI in the test with MDA-MB-435 came to 13.4 µM; in the test on BT-549 breast, 4.19 µM; in the test with CAKI-1 renal, 10.7 µM; with SK-OV-3 ovarian it was 24.9 µM.
For the compound `CCOC(=O)C#Cc1ccc(C#CC(=O)OCC)cc1`, the TGI in the test with MDA-MB-231 breast is above 22.7 µM; with OVCAR-3 ovarian it was above 20.5 µM; in the test on M14 melanoma, above 20.7 µM; with SF-295 CNS, above 32.1 µM; in the test with MCF7 breast, 10.6 µM; in the test with SK-MEL-28 melanoma, above 20.9 µM. For the same compound, the TGI in the test with MDA-MB-435 was 3.86 µM; with BT-549 breast, above 21.7 µM; in the test with CAKI-1 renal, above 20.2 µM; in the test with SK-OV-3 ovarian, 84.2 µM.
Take `N#CSCC1CC(O)(c2ccccc2)C(c2ccccc2)C(c2ccc(F)cc2)O1` (stereo not given): the GI50 is 2.53 µM with MDA-MB-231 breast; 1.52 µM in the test with OVCAR-3 ovarian; 1.84 µM in the test on M14 melanoma; 1.88 µM in the test on SF-295 CNS; 2.8 µM with MCF7 breast; 2.93 µM with SK-MEL-28 melanoma. For the same compound, the GI50 in the test with MDA-MB-435 is 1.99 µM; in the test on BT-549 breast it was 2.32 µM; with CAKI-1 renal, 2.39 µM; in the test with SK-OV-3 ovarian, 28.6 µM. Also, the TGI with MDA-MB-231 breast stood at 8.62 µM; with OVCAR-3 ovarian, 2.99 µM; in the test with M14 melanoma, 4.09 µM; with SF-295 CNS it was 7.08 µM; in the test with MCF7 breast it was 11.6 µM; in the test on SK-MEL-28 melanoma it was 8.79 µM. Besides, the TGI with MDA-MB-435 was 4.9 µM; in the test on BT-549 breast, 5.39 µM; in the test with CAKI-1 renal, 5.46 µM; in the test with SK-OV-3 ovarian, above 90.6 µM.
As to `Cc1ccc(NC2=C(Sc3ccc(Cl)cc3)C(=O)N(Cc3ccccc3)C2=O)cc1Cl`, the GI50 in the test on MDA-MB-231 breast is 3.84 µM; in the test on OVCAR-3 ovarian it was 2.09 µM; in the test on M14 melanoma, 3.88 µM; in the test on SF-295 CNS, 5.86 µM; in the test on MCF7 breast it was 4.37 µM; with SK-MEL-28 melanoma, 28.7 µM. For the same compound, the GI50 with MDA-MB-435 was 22 µM; in the test on BT-549 breast, 10.4 µM; in the test with CAKI-1 renal it was 3.44 µM; with SK-OV-3 ovarian, 18.2 µM. Further, the TGI is 14.7 µM with MDA-MB-231 breast; 5.31 µM in the test on OVCAR-3 ovarian; 17.5 µM in the test with M14 melanoma; above 100 µM in the test with SF-295 CNS; above 100 µM in the test with MCF7 breast; above 100 µM with SK-MEL-28 melanoma. The TGI was above 100 µM in the test on MDA-MB-435, 24 µM in the test on BT-549 breast, 15.9 µM in the test with CAKI-1 renal and 45.7 µM with SK-OV-3 ovarian.
As to `Nc1ncc(-c2ccc(C(F)(F)F)cc2)c(NC2CCCCCC2)n1`, the GI50 in the test on MDA-MB-231 breast is 21.3 µM; in the test on OVCAR-3 ovarian, 35.9 µM; with M14 melanoma, 32.9 µM; in the test with SF-295 CNS it was 24.1 µM; in the test with MCF7 breast, 27.5 µM; in the test on SK-MEL-28 melanoma, 53.6 µM. For the same compound, the GI50 in the test with MDA-MB-435 is 35 µM; in the test with BT-549 breast it was 34.9 µM; in the test with CAKI-1 renal, 20.9 µM; with SK-OV-3 ovarian, above 100 µM. Moreover, the TGI is 76.9 µM in the test on MDA-MB-231 breast; above 100 µM with OVCAR-3 ovarian; above 100 µM in the test on M14 melanoma; above 100 µM with SF-295 CNS; above 100 µM in the test on MCF7 breast; above 100 µM with SK-MEL-28 melanoma. Moreover, the TGI with MDA-MB-435, with BT-549 breast, in the test with CAKI-1 renal and in the test with SK-OV-3 ovarian was above 100 µM each time.
With `O=c1[nH]nc2c3c(cccc13)NC(CN1Cc3ccccc3C1)=N2`, the GI50 in the test on MDA-MB-231 breast was 5.5 µM; with OVCAR-3 ovarian, 5.64 µM; in the test on M14 melanoma, 4.08 µM; in the test with SF-295 CNS, 5.61 µM; in the test with MCF7 breast, 3.82 µM; in the test with SK-MEL-28 melanoma, 15.3 µM. The GI50 with MDA-MB-435 is 4.39 µM; with BT-549 breast, 34.7 µM; with CAKI-1 renal, 4.92 µM; in the test on SK-OV-3 ovarian, 3.11 µM. The TGI with MDA-MB-231 breast, with OVCAR-3 ovarian, in the test with M14 melanoma, with SF-295 CNS, in the test on MCF7 breast and in the test with SK-MEL-28 melanoma was above 100 µM in each case. For the same compound, the TGI with MDA-MB-435, with BT-549 breast, with CAKI-1 renal and in the test on SK-OV-3 ovarian was above 100 µM in each case.
